Patent US11542311B2, “Fusion protein, preparation method therefor and application thereof in preparing ophthalmic disease treatment, anti-inflammation and anti-tumor medicament” (JIANGSU RONGTAI BIOTECH CO., LTD., priority 2017, dated 2023)

Legend:
mouse spleen lymphocytes = assay: Proliferation of mouse spleen lymphocytes (ConA, MTT); format: cell-based; conditions: 20 μg/mL, 48 h
Procedure: Tris-NH4Cl was used to break the red blood cells, which were allowed to stand in an ice water bath for 4 min and centrifuged (1000 rpm, 5 min), the supernatant was discarded, and the cells were washed twice with sterile PBS.
The cells were statically cultured in a cell incubator at 37° C. for 48 h. After the completion of the culture, 20 μL of MTT was added to each well, and the culture was continued for 4 h. Finally, all the solutions in each well were discarded, 100 μL of DMSO was added to each well, and the mixture was shaken and detected by a microplate reader for OD value at 570 nm. 5 parallels were preformed for per well.

[1] = tested on: IL-1β production by mouse peritoneal macrophages; assay: IL-1β production by mouse peritoneal macrophages (ELISA); format: cell-based; conditions: 20 μg/mL, 48 h
Procedure: (1) IL-1β production: mice were intraperitoneally injected with 1 mL of broth medium containing 6% starch, and three days later, the mouse peritoneal macrophages were aseptically taken, washed twice with a 1640 medium, adjusted to the cell concentration of 2×10^6 cells/mL, inoculated into a 24-well culture plate, 1 mL/well, incubated for 3 h in a cell culture incubator, and shaken once every 30 min, so that the cells were allowed to adhere sufficiently. Then, the cells were washed twice with a culture liquid to remove un-adhered cells. […] After administration, the culture was continued for 48 h, the cells were centrifuged at 1000 r/min for 15 min. The supernatant was taken as a sample for testing activity of IL-1β.
(2) Determination of IL-1β content: the detection was performed by using mouse IL-1β enzyme-linked immunosorbent assay kit from R&D company. […]

[2] = tested on: peritoneal capillary permeability in mice; assay: Peritoneal capillary permeability in mice (Evans blue, HAc); format: in vivo, Kunming mice; conditions: 10 mg/kg by injection
Procedure: The drug was administered once by injection every 5 days, and the blank model group was given an equal volume of physiological saline for 5 days and fed normally. On the 5th day after the administration, a 5 g/L of Evans blue physiological saline solution was injected into the tail vein at […], followed by intraperitoneal injection ([…]) HAc solution (6 mL/L) to induce inflammation. After 20 min, the mice were sacrificed by cervical dislocation. 5 mL of physiological saline was intraperitoneally injected, the abdomen was gently rubbed for 2 min, the abdominal cavity was cut, a peritoneal washing solution was collected and centrifuged at 4000 rpm for 10 min, 1 mL of supernatant was taken, and 3 mL of physiological saline was added to obtain a 4 mL of dilution. The absorbance OD value of the dilution was measured by an ultraviolet spectrophotometer at a wavelength of 590 nm, and the amount of pigment exudation was expressed by the OD590 nm value, and peritoneal capillary permeability in mice was examined.

[3] = tested on: toe swelling in rat induced by carrageenan; assay: Acute inflammation of toe swelling in rat induced by carrageenan; format: in vivo, SD rats; conditions: 10 mg/kg
Procedure: 80 SD rats were randomly divided into 8 groups with 10 mice for each group. […] The drug was administered once by injection every 5 days, and the model group was given an equal volume of physiological saline for 3 days and fed normally. On the third day after the administration, 0.1 mL of 1% carrageenan was injected subcutaneously into the right hind toes of the rats to induce inflammation. The foot volume was measured at 1 h, 3 h, 5 h, and 7 h after inflammation. The swelling degree of the foot was calculated according to the following formula: the swelling degree of the foot (mL)=the volume of the foot after inflammation−the volume before inflammation. The number of milliliters of spilled liquid was recorded (method: the protruding point of the right joint was circled with a ballpoint pen and used as a measurement mark, and the right hind feet of the rats were sequentially placed in the volume measuring device, so that the hind limbs were exposed outside the cylinder, and the depth of the immersion was limited to the overlap of the circle and the liquid level. After the foot entered the liquid, the liquid level was raised, and the volume of the spilled liquid was the volume of the right hind foot of the rat, and the normal volume of the right hind foot of each mouse is sequentially determined).

[4] = tested on: human retinal vascular endothelial cell (HRCEC); assay: MTT assay, proliferation of human retinal vascular endothelial cell (HRCEC); format: cell-based; conditions: 5 μg/mL, 48 h
Procedure: The activity of the integrin blocker polypeptide to inhibit proliferation of human retinal vascular endothelial cells was examined by MTT assay. HRCEC cells were cultured in a 5% CO2 incubator at 37° C. to a density of 90% or more, and then collected by trypsinization. The cells were resuspended in the culture liquid and counted under a microscope. The cell concentration was adjusted to 3.0×10^4 cells/mL. The cell suspension was inoculated into a 96-well plate, 100 μL per well, and cultured overnight in a 5% CO2 incubator at 37° C. […] After the cells were fully adhered, each dilution was added to a 96-well plate, 100 μL per well, respectively. […] 20 μL of 5 mg/mL MTT was added to each well of a 96-well plate, and incubation was continued for 4 hours. The medium was aspirated and 100 μL of DMSO was added per well for dissolution. The absorbance was measured at 570 nm with a microplate reader with a reference wavelength of 630 nm, and the proliferation inhibition (PI) was calculated. The formula was as follows: […]
where Ntest is the OD value of the test group and Ncontrol is the OD value of the blank control group.
The test was repeated 5 times independently. The results obtained from the test were calculated as mean±SD, and statistical t-test was performed. P<0.05 was considered as a significant difference, and P<0.01 was considered as an extremely significant difference.

[5] = tested on: angiogenesis of chicken embryo chorioallantoic membrane; assay: Chicken embryo chorioallantoic membrane (CAM) angiogenesis assay; format: in vivo, White Leghorn chicken embryos; conditions: 10 μg, 72 hours
Procedure: The study has shown that the biosynthesis rate of collagen reached the maximum on the 8th to 11th day of chicken embryo development, which was the most vigorous stage of angiogenesis, and the body's immune system had not yet been fully established at that time, and thus the chicken embryos developed to the 8th day was selected to be administered. […] The following steps were used:
(1) The White Leghorn chicken embryos on day 6 were cultured in a 37° C. incubator at 60%-70% humidity for two days.
(2) A 1.0 cm×1.0 cm window was drilled above the chicken embryo air sac, and the inner membrane was torn off with forceps to expose the chorioallantoic membrane. Lens paper having a diameter of 5 mm was used as a loading carrier, and was placed on the chorioallantoic membrane of the chicken embryo air sac. […]
(3) The chicken embryo air sac was sealed with a sterile transparent tape, and after culturing at 37° C. for 72 hours, the chicken embryo air sac was opened, and a fixative (formaldehyde:acetone=1:1) was added for fixation for 15 minutes. The chorioallantoic membrane to which the lens paper was adhered was taken out, the distribution of the new blood vessels was observed, and the new blood vessels were counted and photographed. Five replicates were set for each dose and the results were statistically analyzed.

Compound | A570 nm/A630 nm (mouse spleen lymphocytes) | PI (%) (mouse spleen lymphocytes) | IL-1β [1] [pg/mL] | PI (%) ([1]; IL-1β) | Exudation rate (OD590) [2] | Swelling degree ([3]; 1 h after carrageenan) [mL] | Swelling degree ([3]; 3 h after carrageenan) [mL] | Swelling degree ([3]; 5 h after carrageenan) [mL] | Swelling degree ([3]; 7 h after carrageenan) [mL] | A570 nm/A630 nm [4] | Blood vessel number [5]
C[C@@H]1C[C@H]2[C@@H]3CCC4=CC(=O)C=C[C@]4(C)[C@@]3(F)[C@@H](O)C[C@]2(C)[C@@]1(O)C(=O)CO [Dex, dexamethasone, reference compound] | 0.3468 ± 0.1144 | 41.11 | 322.46 ± 20.56 | 61.38 | 0.27 ± 0.03 | 0.21 ± 0.11 | 0.26 ± 0.10 | 0.26 ± 0.11 | 0.25 ± 0.09 | – | –
bevacizumab [Avastin ®, reference compound] | – | – | – | – | – | – | – | – | – | 0.4544 | 63 ± 17
